Assay results published in patent US4043994A, “New pentapeptides and methods for their production” (Parke, Davis & Company, priority 1976, dated 1977).
Where “and” joins values, the source holds several entries; their conditions need not be identical. Equal values may be shown once. Ends that are not written are not given here.

System: LRF (luteinizing hormone release factor) induced luteinizing hormone (LH) release
Assay: In vitro LRF antagonist test in rat anterior pituitary cell cultures
Format: cell-based
Conditions: for LH Value: culture medium
From the text: Pentapeptides of this invention were screened for LRF antagonist activity in vitro using rat anterior pituitary cell cultures as described by Vale et. al. [Endocrinology, 91, 562 (1972)]. The inhibition of LRF (luteinizing hormone release factor) induced luteinizing hormone (LH) release into the culture medium is the endpoint in this in vitro bioassay.

[1] = compound 1×10^-6 molar, LRF 2.5×10^-10 molar
[2] = compound 1×10^-6 molar, LRF 5×10^-10 molar
[3] = compound 5×10^-6 molar, LRF 5×10^-10 molar

Compound: N^α -t-Butoxycarbonyl-N^im -benzyl-L-histidyl-O-benzyl-L-seryl-O-benzyl-L-tyrosyl-D-alanyl-L-leucine methyl ester
- % LH Release Inhibition [1]: 72%
- LH Value [1]: 20.26 ng/mL

Compound: N^α -t-Butoxycarbonyl-N^im -benzyl-L-histidyl-O-benzyl-L-seryl-O-benzyl-L-tyrosyl-D-alanyl-L-leucyl hydrazide
- % LH Release Inhibition [1]: 71%
- LH Value [1]: 19.35 ng/mL

Compound: LRF Control: luteinizing hormone releasing factor, also referred to as luteinizing hormone releasing hormone, or LH-RH; the stimulus in the assay (QHWSYGLRPG; ends and bridges not checked; UniProt P01148 24-33, looked up) [reference compound]
- LH Value (LRF alone 2.5×10^-10 molar): 49.90 ng/mL and 28.52 ng/mL
- LH Value (LRF alone 2.5×10^-10 molar, listed as LRF control): 51.62 ng/mL
- LH Value (LRF alone 5×10^-10 molar): 52.93 ng/mL

Compound: CCNC(=O)C1CCCN1C(=O)[C@@H](C)NC(=O)[C@H](Cc1ccc(OCc2ccccc2)cc1)NC(=O)[C@H](COCc1ccccc1)NC(=O)[C@@H](Cc1c[nH]c2ccccc12)NC(=O)OC(C)(C)C (mixture of isomers) [N^α -t-Butoxycarbonyl-D-tryptophyl-O-benzyl-L-seryl-O-benzyl-L-tyrosyl-D-alanyl-DL-proline N-ethylamide]
- % LH Release Inhibition [1]: 84%
- LH Value [1]: 10.61 ng/mL
- % LH Release Inhibition [2]: 43%
- LH Value [2]: 34.51 ng/mL
- % LH Release Inhibition [3]: 90%
- LH Value [3]: 14.02 ng/mL
